Legend:
[1] = Inhibition of Geranylgeranyl transferase type I; set-up: species or system Homo sapiens
[2] = biological target: Protein farnesyltransferase (Homo sapiens, UniProt P49354+P49356); experiment: Inhibition of Farnesyltransferase; type: protein-complex assay

Row | IC50 [1] | IC50 [2] | SMILES
1 | 70 µM | 3.5 µM | O=Cc1cc(O)c(C=O)c(C(=O)c2cccc(O)c2O)c1
2 | 85 µM | 2.4 µM | CC(=O)Oc1cc(C=O)cc(C(=O)c2cccc(OC(C)=O)c2OC(C)=O)c1C=O
